Like-named read-outs stand apart in the source and are kept apart here.
How the values were obtained:
[1] = target: T1, stearoyl-CoA desaturase (SCD) (Mus musculus, UniProt P13516); assay: SCD mouse liver microsome assay (tritiated stearoyl-CoA desaturation); format: biochemical; conditions: for % Remaining SCD activity compared to DMSO control, average: mouse liver microsomes 100 μg, 15 min RT preincubation, 15 min RT desaturation
T1 construct: % Remaining SCD activity compared to DMSO control in mouse liver microsome assay; from tissue; host or cells: mouse liver microsomes
T1 sequence (P13516 1-355): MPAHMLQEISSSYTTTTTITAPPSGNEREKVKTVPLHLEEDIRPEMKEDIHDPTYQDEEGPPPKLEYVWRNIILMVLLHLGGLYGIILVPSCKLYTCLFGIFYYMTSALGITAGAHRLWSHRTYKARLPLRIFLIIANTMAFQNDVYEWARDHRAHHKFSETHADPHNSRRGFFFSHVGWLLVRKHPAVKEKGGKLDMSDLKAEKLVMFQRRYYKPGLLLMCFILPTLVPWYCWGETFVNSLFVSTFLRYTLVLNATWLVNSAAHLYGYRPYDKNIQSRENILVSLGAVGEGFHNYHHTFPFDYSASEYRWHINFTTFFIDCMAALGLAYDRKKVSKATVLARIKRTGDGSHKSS
Protocol: The identification of compounds of the invention was readily accomplished using the SCD enzyme and microsomal assay procedure described in Brownlie et al, supra.
Briefly, mouse or human liver microsomes (induced for SCD1 expression and containing cytochrome b5 and cytochrome b5 reductase) and NADH are suspended in buffer with a test compound, and reaction is initiated by addition of 0.025 mM tritiated stearoyl-CoA. This ligand is tritiated at the C9 and C10 position only. The reaction is allowed to proceed for between 5 and 20 minutes at room temperature, whereupon it is halted by addition of acid. Activated charcoal is then added, mixed, and centrifuged to separate labeled substrate from labeled water. An aliquot of supernatant is than tested for radioactivity using liquid scintillation counting. This is taken as a measure of delta-9 desaturase activity.
The compounds and compositions of the invention were tested in mouse liver microsomes, 100 μg for 15 minutes at room temperature pre-incubation with the compound and 15 minutes at room temperature desaturation period. […] Identification numbers are the same as those indicated in FIGS. 1 and 2 showing the structures and characteristics of the compounds.
% Remaining SCD activity compared to DMSO control in mouse liver microsome assay at concentration of test compound indicated. Compounds tested in mouse liver microsomes, 100 μg, 15 min RT preincubation with compound, 15 min RT desaturation period, Large volume bench-top tube method.

[2] = system: stearoyl-CoA desaturase; assay: Fatty acid composition in rats after repeated dosing; format: in vivo; conditions: 9 doses (2 per day), 30 mg/kg body weight, HCl salt
Text: A highly preferred compound of the invention has the structure of Formula I, wherein R1 is H and R2 is isopentyl, X=C, n=2, m=1 and R3=2-trifluoromethylphenyl.

[3] = Table 5, % remaining SCD activity at 10 μM, mouse microsome assay
[4] = Table 5, % remaining SCD activity at 0.1 μM, mouse microsome assay
[5] = Table 5, % remaining SCD activity at 1 μM, mouse microsome assay

% Remaining SCD activity compared to DMSO control, average ([1]; 0.1 uM test compound) [%] | % Remaining SCD activity compared to DMSO control, average ([1]; 1 uM test compound) [%] | % Remaining SCD activity compared to DMSO control, average ([1]; 10 uM test compound) [%] | % Activity 10 μM [1, 3] [%] | % Activity 0.1 μM [1, 4] [%] | % Activity 1 μM [1, 5] [%] | IC50 ([1]; Table 5, SCD inhibition, read-out: IC50) [nM] | activity at 0.1 µM [1, 4] [%] | activity at 1 µM [1, 5] [%] | activity at 10 µM [1, 3] [%] | IC50 ([1]; stated in summary text, read-out: IC50 value) [nM] | % of the activity inhibited ([1]; 10 μM concentration of the compound) [%] | Structure (SMILES) | changes in fatty acid composition [2]
74.82 | 33.28 | 3.94 | 3.94 | – | – | – | – | – | – | – | – | Cc1ccccc1CC(=O)N1CCN(c2ccc(C(=O)NCCC(C)C)cn2)CC1 [Compound X21] | –
61.74 | 10.59 | 1.01 | 1.01 | – | – | – | – | – | – | – | – | COc1ccc(Br)c(C(=O)N2CCN(c3ccc(C(=O)NCCCc4ccccc4)cn3)CC2)c1 [Compound X17] | –
57.77 | 9.05 | 1.42 | 1.4 | 58 | 9.1 | – | – | – | – | – | – | O=C(NCCc1cccc(Cl)c1)c1ccc(N2CCN(C(=O)c3ccccc3C(F)(F)F)CC2)nc1 [Compound X01] | –
29.72 | 3.37 | 1.07 | 1.1 | 30 | 3.4 | – | – | – | – | – | – | O=C(NCCCc1ccccc1)c1ccc(N2CCN(C(=O)c3cc(Cl)ccc3Cl)CC2)nc1 [Compound X10] | –
25.68 | 5.49 | 1.27 | 1.3 | 26 | 5.5 | – | – | – | – | – | – | CC(C)CCNC(=O)c1ccc(N2CCN(C(=O)c3ccccc3Br)CC2)nc1 [Compound X02] | –
38.24 | 7.44 | 1.39 | 1.4 | 38 | 7.4 | – | – | – | – | – | – | CC(C)CCNC(=O)c1ccc(N2CCN(C(=O)c3ccc(Cl)cc3Cl)CC2)nc1 [Compound X14] | –
38.00 | 5.38 | 1.97 | 2 | 38 | 5.4 | – | – | – | – | – | – | CCCCCNC(=O)c1ccc(N2CCN(C(=O)c3cc(Cl)ccc3Cl)CC2)nc1 [Compound X06] | –
25.41 | 3.67 | 1.72 | 1.7 | 25 | 3.7 | 37 | – | – | – | – | – | CCCCCNC(=O)c1ccc(N2CCN(C(=O)c3ccccc3C(F)(F)F)CC2)nc1 [Compound X11] | –
36.54 | 5.48 | 1.29 | 1.3 | 37 | 5.5 | – | – | – | – | – | – | O=C(NCCc1ccccc1)c1ccc(N2CCN(C(=O)c3ccccc3Br)CC2)nc1 [Compound X04] | –
44.95 | 6.46 | 1.22 | 1.2 | 45 | 6.5 | – | – | – | – | – | – | CCCCCCNC(=O)c1ccc(N2CCN(C(=O)c3ccccc3C(F)(F)F)CC2)nc1 [Compound X15] | –
44.42 | 7.77 | 1.75 | 1.8 | 44 | 7.8 | – | – | – | – | – | – | CCCCCNC(=O)c1ccc(N2CCN(C(=O)c3ccccc3Br)CC2)nc1 [Compound X13] | –
75.14 | 18.59 | 3.57 | 3.57 | – | – | – | – | – | – | – | – | CCCCNC(=O)c1ccc(N2CCN(C(=O)c3ccccc3Br)CC2)nc1 [Compound X19] | –
– | – | – | – | – | – | – | – | – | – | – | – | CC(C)CCNC(=O)c1ccc(N2CCN(C(=O)c3ccccc3C(F)(F)F)CC2)nc1 | changes in fatty acid composition consistent with inhibition of SCD activity
17.09 | 3.05 | 0.81 | – | – | – | – | 17 | 3.1 | 0.8 | 32 | – | CC(C)CCNC(=O)c1ccc(N2CCN(C(=O)c3ccccc3C(F)(F)F)CC2)nc1 [Compound X05] | –
29.87 | 3.91 | 1.15 | 1.2 | 30 | 3.9 | – | – | – | – | – | – | O=C(NCCc1ccccc1)c1ccc(N2CCN(C(=O)c3cc(Cl)ccc3Cl)CC2)nc1 [Compound X12] | –
31.35 | 7.01 | 2.06 | 2.1 | 31 | 7 | – | – | – | – | – | – | CC(C)CCNC(=O)c1ccc(N2CCN(C(=O)c3cccc4ccccc34)CC2)nc1 [Compound X16] | –
26.04 | 2.17 | 0.72 | 0.7 | 26 | 2.2 | – | – | – | – | – | > 99 | O=C(NCCCc1ccccc1)c1ccc(N2CCN(C(=O)c3ccccc3C(F)(F)F)CC2)nc1 [Compound X03] | –
86.33 | 32.64 | 3.41 | 3.41 | – | – | – | – | – | – | – | – | Cc1ccsc1C(=O)N1CCN(c2ccc(C(=O)NCCc3cccc(Cl)c3)cn2)CC1 [Compound X18] | –
63.58 | 14.80 | 2.69 | 2.7 | 64 | 15 | – | – | – | – | – | – | CCCCNC(=O)c1ccc(N2CCN(C(=O)c3ccccc3C(F)(F)F)CC2)nc1 [Compound X09] | –
